Values of other authors as cited in article PMC3547486 (ACS Chemical Neuroscience, 2012).

System: 5-HT release

Clc1cccc(N2CCNCC2)c1 [mCPP, m-chlorophenylpiperazine]
5-HT releasing activity (in words): potent 5-HT releaser
